Results taken from US8148493B2, “Method for inhibiting “melanoma inhibitory activity” MIA” (Antisense Pharma GmbH, priority 2002, dated 2012).

Experiments:
MIA = target: T1, MIA (Homo sapiens, UniProt Q16674); assay: Boyden Chamber assay, melanoma cell invasion with and without MIA; format: cell-based
T1 sequence (Q16674 25-131): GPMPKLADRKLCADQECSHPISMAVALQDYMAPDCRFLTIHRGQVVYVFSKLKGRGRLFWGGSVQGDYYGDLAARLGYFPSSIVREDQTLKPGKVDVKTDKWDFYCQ
Description: Both in vitro and in vivo MIA expression levels strictly correlate with an highly invasive phenotype (Bosserhoff et al., 1996, J. Biol. Chem. 271, 490-495; Bosserhoff et al., 1999, J. of Pathology 187, 446-454). Further in vivo studies have shown the necessity of MIA for melanoma invasion and metastasis (Bosserhoff et al., 2001, Melanoma Res. 11, 417-421., Guba, et al., 2000, Br. J. Cancer 83, 1216-1222). We therefore aimed to design MIA-inhibitory peptides based on our experiments which identified fibronectin epitopes interacting with MIA (Stoll et al., 2001; EMBO J. 20: 340-349). Peptides derived from fibronectin which were shown previously to cross-react with MIA were tested in Boyden Chamber assays on their effect on melanoma cell invasion with and without MIA. […] In addition we tested several of the peptide sequences derived from phage display screenings and found peptide SEQ ID NO:16 to be a potential interesting candidate for therapeutic MIA-inhibition. […] We then tested the effect of peptides SEQ ID NO:16 and 22 on growth of metastasis in vivo using the B16/C57B16 model.

B16 melanoma cells = assay: In vivo experimental metastasis assay, B16/C57Bl6 model; details: C57Bl6 mice, B16 cells i.v., peptide 550 μg/mouse every day, 18 days; for size of the lung tumor nodules: control 119.9±9.95; for number of black lung nodules of melanoma: control 193±13
Method: To measure the effect of SEQ ID NO: 16 and SEQ ID NO:22 on the metastatic potential of B16 melanoma cells in vivo an experimental metastasis assay was used (Bosserhoff et al., 2001, Melanoma Res. 11, 417-421). Intravenous injections of monodispersed tumor cells (1×10^5 cells per animal) were performed into syngeneic C57BI6 mice (n=12 for every peptide as well as control). Peptides (550 μg/mouse) or PBS was injected every day. After 18 days the mice were sacrificed, the lungs removed, washed in PBS, fixed in formalin and the visible tumor nodules on the surface of the lungs were counted and the tumor areas measured.

melanoma cells = assay: Melanoma (tumor) cell attachment; format: cell-based

Sequence | effect on MIA function (melanoma cell invasion) (MIA) | size of the lung tumor nodules (B16 melanoma cells) | number of black lung nodules of melanoma (B16 melanoma cells) | effect on melanoma/tumor cell attachment (melanoma cells)
ETTIVITWTPAPR (from phage display screening) [SEQ ID NO:22, fibronectin-derived peptide] | block MIA function | 87.15±5.32 | 249±26 | –
NSLLVSWQPPRAR (from phage display screening) [SEQ ID NO:24, fibronectin-derived peptide] | block MIA function | – | – | inhibit also tumor cell attachment
RLTLLVLIMPAP (from phage display screening) [SEQ ID NO:16, do-decapeptide from phage display] | strongly inhibited | 78.1±5.03 | 198±19 | no effect
TSLLISWDAPAVT (from phage display screening) [SEQ ID NO:23, fibronectin-derived peptide] | block MIA function | – | – | inhibit also tumor cell attachment
